Results from patent publication US20210386813A1, “COMPOSITION FOR TREATING OVERWEIGHT AND/OR OBESITY” (NEXIRA, priority 2018, published 2021).
Marks after values point to notes of the source that are not given here.

Experiments:
[1] = test system: differentiated preadipocytes; test: Adipose tissue energy metabolism study, ATP production (Mitochondrial ToxGlo); format: cell-based, human; settings: differentiated cells; rotenone 400 nM, 2 hours
Experimental: In order to study the energy metabolism, the ATP production is measured in the differentiated preadipocytes. This provides information on the presence of mitochondria and their activity. Here, the Mitochondrial ToxGlo® test available from Promega under the reference G8000 is used.
The test includes placing preadipocytes in contact with an ATP detection reagent. […] The ATP detection reagent comprises luciferin, ATPase inhibitors and Ultra-Glo® thermostable luciferase. The values are normalized with a DAPI quantification. The Normalization is carried out exclusively in relation to the basolateral medium.
Preadipocytes coming from humans are used for the energy metabolism study. The three donors are those of the cytotoxicity study (I) above.
(§1) The preadipocytes are isolated by digestion and centrifugation in accordance with the protocol described for the cytotoxicity study (I) above. The preadipocytes are spread at high density on microtiter plate 96 and cultivated according to the protocol described for the lipid accumulation study (II). The placing in contact with the basolateral medium is performed according to the protocol described for the lipid accumulation study (II).
The quantification of the ATP synthesis is performed on differentiated cells.
The basolateral medium (BM) comprising the bioavailable extracts of the Caco-2 cell system is harvested for the test. […]

preadipocytes [2] = test: Preadipocyte differentiation and lipid accumulation (adipogenesis) study, BODIPY fluorescence; format: cell-based; settings: human preadipocytes; GW9662 0.1 μM; relative to differentiated cells
Experimental: In practice, the effects of the bioavailable extracts on the lipid accumulation are studied by measuring the accumulation of lipid droplets in the differentiated preadipocytes, that is to say in the adipocytes. The measurement is optical and is performed by fluorescence.
Preadipocytes coming from humans are used for the lipid accumulation study.
The three adipose tissue donors are adult females undergoing a cosmetic or reconstructive surgery intervention.
The preadipocytes are isolated by digestion and centrifugation in accordance with the protocol described for the cytotoxicity study (I) above. […]
The quantification is based on fluorescence intensity measurements on images. The acquisition and the processing of images includes particularly: • the acquisition of microphotographs with a video microscope using the so-called Apotome technology (7 micrographs per well, 3 wells per processing condition); • the quantification of the lipid accumulation by the treatment and the image analysis of the ImageJ software developed by National Institutes of Health (NIH); • the determination of the number of nuclei by means of a shape detection and shape sorting algorithm based on the nucleus size and the circularity of the nucleus; • the connection between the fluorescence detected and the number of nuclei. […]
Fluorescence microphotographs are performed to quantify the lipid accumulation (Bodipy®). […]

UCP1 = test: Adipose tissue phenotypic orientation (thermogenesis) study, UCP1 expression by immunofluorescence; format: cell-based; settings: human preadipocytes; GW9662; relative to differentiated cells
From the text: The Applicant evaluated the effects of a multitude of bioavailable plant extracts, as well as the effects of the combination of these extracts, on the differentiation of preadipocytes or adipocytes into beige adipocytes. More generally the Applicant evaluated the orientation of a white phenotype towards a beige phenotype.
Preadipocytes coming from humans are used for the cellular differentiation study. The three donors are those of the cytotoxicity study (I) above.
as §1
After the culture, the differentiated cells are fixed with a 4% paraformaldehyde solution then colored with an anti-UCP1 fluorescent antibody available from Sigma-Aldrich under the reference U6382. […]
The quantification is based on fluorescence intensity measurements on images. […]
Fluorescence microphotographs are performed to quantify the UCP1 expression. […]

preadipocytes [3] = test: Cytotoxicity study of bioavailable plant extracts on human preadipocytes (LDH release, CytoTox 96); format: cell-based; settings: relative to FBS 1% base control, 0.2% triton
Experimental: The analysis of the damage of cell membranes is performed with the CytoTox 96® Non-Radioactive Cytotoxicity Assay kit available from Promega under the reference G1780. This test is based on the principle that cells having a damaged cell membrane release […] (LDH) into the culture medium. LDH is measured by supplying in the medium lactate, oxidized nicotinamide adenine dinucleotide (NAD+) and iodonitrotetrazolium purple as substrates in presence of diaphorase. Red formazan is then created. The red formazan is proportional to the LDH released by the cells. The Applicant evaluated the cytotoxic effects of a multitude of bioavailable plant extracts, as well as the cytotoxic effects of the combination of these extracts, on preadipocytes coming from various donors. The cytotoxic effects of bioavailable plant extracts and their combinations was evaluated on preadipocytes. […] An extract is considered as cytotoxic if the LDH level measured is greater than or equal to 20% in relation to the LDH level measured with the control extract. […] The results are expressed in percentages in relation to the control extract; except for the LDH test, for which the results are expressed as percentages of the cell lysis control (average+/− SEM), which represents the positive control for the cytotoxicity (the control is fixed at 100%). […]

preadipocytes [4] = test: Cellular viability / mitochondrial activity (MTS formazan, Cell Titer 96 AQueous One); format: cell-based; settings: human preadipocytes; relative to FBS 1% base control; 0.2% triton
Experimental: The cytotoxic effects of bioavailable plant extracts and their combinations was evaluated on preadipocytes. Two technical approaches were implemented: • the evaluation of the cellular viability by the measurement of the production of formazan by active (therefore living) cells; and • the analysis of the damage of cell membranes by the measurement of lactate dehydrogenase (LDH) in the cell culture medium.
The evaluation of the cellular viability is performed with the Cell Titer 96® AQueous One Solution Cell Proliferation Assay test kit available from Promega under the reference G3580.
In this test, the compound MTS-tetrazolium (3-(4,5-dimethylthiazol-2-yl)-5-(3-carboxymethoxyphenyl)-2-(4-sulfophenyl)-2H-tetrazolium) is transformed by active (living) cells in a culture medium in colored formazan. The transformation of MTS-tetrazolium is performed by the mitochondria in the cells. Formazan is soluble in the culture medium. The quantity of formazan is directly proportional to the number of living cells and may be measured by spectrophotometry (absorbance).
In practice, the cellular viability test is therefore based on the mitochondrial activity of the cells.
As a result, the viability study may provide precious information for the energy metabolism study (IV). […]
The cellular viability is measured directly in the wells of the microtiter plate. […]

adipocytes = test: Lipolysis study of mature adipocytes (glycerol and NEFA release); format: cell-based; settings: human adipocytes, 2 h at 37° C.; forskolin 1 μM, isoproterenol 0.1 μM; 100 = Base control
Experimental: The quantification of the production of glycerol is performed by means of the Glycerol Assay Kit test kit available from Randox under the reference GY105.
The quantification of the production of non-esterified fatty acids is performed by the NEFA HR2—RI Set, NEFA HR2—R2 Set and NEFA Standard test kits available from Fujifilm Wako Chemicals Europe under the respective references 434-91795, 436-91995 and 270-77000.
Each of these kits is based on the production of a colored compound. Thus, the respective concentrations of glycerol and non-esterified fatty acids are determined by means of optical absorbance measurements, and the comparison of these measurements with known absorbance ranges for glycerol and non-esterified fatty acid concentrations. The values are normalized by DNA quantification by means of the Quant-iT® PicoGreen® (Invitrogen®) kit available from ThermoFisher Scientific under the reference P7589.
Adipocytes coming from humans are used for the lipolysis study.
The adipocytes are prepared from subcutaneous adipose tissue digested by collagenase followed by a low centrifugation.
The adipocytes are incubated in a Krebs-Ringer bicarbonate (KRB) buffer solution, sometimes containing basolateral medium of caco-2 cells exposed with, either predetermined concentrations of extract(s) (at a rate of one 1:8 dilution each), or with reference products. The incubation time is 2 h at a temperature of 37° C. The cell culture medium is subsequently harvested and frozen at a temperature of −20° C. for use in the glycerol and NEFA tests. The adipocytes are also harvested for the DNA quantification.
Forskolin (1 μM, available from Sigma-Aldrich under the reference F6886) and isoproterenol (0.1 μM, available from Sigma-Aldrich under the reference 16504) are used as lipolysis activators.
The results are expressed in percentages in relation to the results obtained for respective BM media without extracts. The statistical analyses are performed by placing the BM environments comprising the extracts in relation with the respective BM environments without extracts.

Molecule: C=C(C)[C@H]1Cc2c(ccc3c2O[C@@H]2COc4cc(OC)c(OC)cc4[C@@H]2C3=O)O1 [Rotenone, rotenone]
- ATP production % Differentiated [1]: 27.95** % Differentiated

Molecule: O=C(Nc1ccccc1)c1cc([N+](=O)[O-])ccc1Cl [GW9662]
- Lipid accumulation % Differentiated (preadipocytes [2]): 30.59* % Differentiated
- UCP1 expression (total cell normalization) % Differentiated (UCP1): 83.38 % Differentiated

Molecule: triton [Lysis control]
- Cytotoxicity % Base control (release of LDH) (preadipocytes [3]): 1,252.05** % Base control
- Mitochondrial Activity (viability) % Base control (preadipocytes [4]): 23.78** % Base control

Molecule: C=C[C@@]1(C)CC(=O)[C@]2(O)[C@@]3(C)[C@@H](O)CCC(C)(C)[C@@H]3[C@H](O)[C@H](OC(C)=O)[C@@]2(C)O1 [Forskolin]
- Glycerol % Differentiated (adipocytes): 151.62** % Differentiated
- NEFA % Differentiated (adipocytes): 179.70** % Differentiated

Molecule: CC(C)NCC(O)c1ccc(O)c(O)c1 (stereo not drawn) [Isoproterenol]
- Glycerol % Differentiated (adipocytes): 213.97** % Differentiated
- NEFA % Differentiated (adipocytes): 241.48** % Differentiated
